Source: ChEMBL document CHEMBL3352433, “Class II but Not Second Class-Prospects for the Development of Class II PI3K Inhibitors” (ACS Med Chem Lett, 2015)

Target: DNA-dependent protein kinase catalytic subunit (Homo sapiens, UniProt P78527)
Assay: Inhibition of human DNA-PK by non-radiometric ADP-Glo assay

Chain of DNA-dependent protein kinase catalytic subunit (P78527 whole entry): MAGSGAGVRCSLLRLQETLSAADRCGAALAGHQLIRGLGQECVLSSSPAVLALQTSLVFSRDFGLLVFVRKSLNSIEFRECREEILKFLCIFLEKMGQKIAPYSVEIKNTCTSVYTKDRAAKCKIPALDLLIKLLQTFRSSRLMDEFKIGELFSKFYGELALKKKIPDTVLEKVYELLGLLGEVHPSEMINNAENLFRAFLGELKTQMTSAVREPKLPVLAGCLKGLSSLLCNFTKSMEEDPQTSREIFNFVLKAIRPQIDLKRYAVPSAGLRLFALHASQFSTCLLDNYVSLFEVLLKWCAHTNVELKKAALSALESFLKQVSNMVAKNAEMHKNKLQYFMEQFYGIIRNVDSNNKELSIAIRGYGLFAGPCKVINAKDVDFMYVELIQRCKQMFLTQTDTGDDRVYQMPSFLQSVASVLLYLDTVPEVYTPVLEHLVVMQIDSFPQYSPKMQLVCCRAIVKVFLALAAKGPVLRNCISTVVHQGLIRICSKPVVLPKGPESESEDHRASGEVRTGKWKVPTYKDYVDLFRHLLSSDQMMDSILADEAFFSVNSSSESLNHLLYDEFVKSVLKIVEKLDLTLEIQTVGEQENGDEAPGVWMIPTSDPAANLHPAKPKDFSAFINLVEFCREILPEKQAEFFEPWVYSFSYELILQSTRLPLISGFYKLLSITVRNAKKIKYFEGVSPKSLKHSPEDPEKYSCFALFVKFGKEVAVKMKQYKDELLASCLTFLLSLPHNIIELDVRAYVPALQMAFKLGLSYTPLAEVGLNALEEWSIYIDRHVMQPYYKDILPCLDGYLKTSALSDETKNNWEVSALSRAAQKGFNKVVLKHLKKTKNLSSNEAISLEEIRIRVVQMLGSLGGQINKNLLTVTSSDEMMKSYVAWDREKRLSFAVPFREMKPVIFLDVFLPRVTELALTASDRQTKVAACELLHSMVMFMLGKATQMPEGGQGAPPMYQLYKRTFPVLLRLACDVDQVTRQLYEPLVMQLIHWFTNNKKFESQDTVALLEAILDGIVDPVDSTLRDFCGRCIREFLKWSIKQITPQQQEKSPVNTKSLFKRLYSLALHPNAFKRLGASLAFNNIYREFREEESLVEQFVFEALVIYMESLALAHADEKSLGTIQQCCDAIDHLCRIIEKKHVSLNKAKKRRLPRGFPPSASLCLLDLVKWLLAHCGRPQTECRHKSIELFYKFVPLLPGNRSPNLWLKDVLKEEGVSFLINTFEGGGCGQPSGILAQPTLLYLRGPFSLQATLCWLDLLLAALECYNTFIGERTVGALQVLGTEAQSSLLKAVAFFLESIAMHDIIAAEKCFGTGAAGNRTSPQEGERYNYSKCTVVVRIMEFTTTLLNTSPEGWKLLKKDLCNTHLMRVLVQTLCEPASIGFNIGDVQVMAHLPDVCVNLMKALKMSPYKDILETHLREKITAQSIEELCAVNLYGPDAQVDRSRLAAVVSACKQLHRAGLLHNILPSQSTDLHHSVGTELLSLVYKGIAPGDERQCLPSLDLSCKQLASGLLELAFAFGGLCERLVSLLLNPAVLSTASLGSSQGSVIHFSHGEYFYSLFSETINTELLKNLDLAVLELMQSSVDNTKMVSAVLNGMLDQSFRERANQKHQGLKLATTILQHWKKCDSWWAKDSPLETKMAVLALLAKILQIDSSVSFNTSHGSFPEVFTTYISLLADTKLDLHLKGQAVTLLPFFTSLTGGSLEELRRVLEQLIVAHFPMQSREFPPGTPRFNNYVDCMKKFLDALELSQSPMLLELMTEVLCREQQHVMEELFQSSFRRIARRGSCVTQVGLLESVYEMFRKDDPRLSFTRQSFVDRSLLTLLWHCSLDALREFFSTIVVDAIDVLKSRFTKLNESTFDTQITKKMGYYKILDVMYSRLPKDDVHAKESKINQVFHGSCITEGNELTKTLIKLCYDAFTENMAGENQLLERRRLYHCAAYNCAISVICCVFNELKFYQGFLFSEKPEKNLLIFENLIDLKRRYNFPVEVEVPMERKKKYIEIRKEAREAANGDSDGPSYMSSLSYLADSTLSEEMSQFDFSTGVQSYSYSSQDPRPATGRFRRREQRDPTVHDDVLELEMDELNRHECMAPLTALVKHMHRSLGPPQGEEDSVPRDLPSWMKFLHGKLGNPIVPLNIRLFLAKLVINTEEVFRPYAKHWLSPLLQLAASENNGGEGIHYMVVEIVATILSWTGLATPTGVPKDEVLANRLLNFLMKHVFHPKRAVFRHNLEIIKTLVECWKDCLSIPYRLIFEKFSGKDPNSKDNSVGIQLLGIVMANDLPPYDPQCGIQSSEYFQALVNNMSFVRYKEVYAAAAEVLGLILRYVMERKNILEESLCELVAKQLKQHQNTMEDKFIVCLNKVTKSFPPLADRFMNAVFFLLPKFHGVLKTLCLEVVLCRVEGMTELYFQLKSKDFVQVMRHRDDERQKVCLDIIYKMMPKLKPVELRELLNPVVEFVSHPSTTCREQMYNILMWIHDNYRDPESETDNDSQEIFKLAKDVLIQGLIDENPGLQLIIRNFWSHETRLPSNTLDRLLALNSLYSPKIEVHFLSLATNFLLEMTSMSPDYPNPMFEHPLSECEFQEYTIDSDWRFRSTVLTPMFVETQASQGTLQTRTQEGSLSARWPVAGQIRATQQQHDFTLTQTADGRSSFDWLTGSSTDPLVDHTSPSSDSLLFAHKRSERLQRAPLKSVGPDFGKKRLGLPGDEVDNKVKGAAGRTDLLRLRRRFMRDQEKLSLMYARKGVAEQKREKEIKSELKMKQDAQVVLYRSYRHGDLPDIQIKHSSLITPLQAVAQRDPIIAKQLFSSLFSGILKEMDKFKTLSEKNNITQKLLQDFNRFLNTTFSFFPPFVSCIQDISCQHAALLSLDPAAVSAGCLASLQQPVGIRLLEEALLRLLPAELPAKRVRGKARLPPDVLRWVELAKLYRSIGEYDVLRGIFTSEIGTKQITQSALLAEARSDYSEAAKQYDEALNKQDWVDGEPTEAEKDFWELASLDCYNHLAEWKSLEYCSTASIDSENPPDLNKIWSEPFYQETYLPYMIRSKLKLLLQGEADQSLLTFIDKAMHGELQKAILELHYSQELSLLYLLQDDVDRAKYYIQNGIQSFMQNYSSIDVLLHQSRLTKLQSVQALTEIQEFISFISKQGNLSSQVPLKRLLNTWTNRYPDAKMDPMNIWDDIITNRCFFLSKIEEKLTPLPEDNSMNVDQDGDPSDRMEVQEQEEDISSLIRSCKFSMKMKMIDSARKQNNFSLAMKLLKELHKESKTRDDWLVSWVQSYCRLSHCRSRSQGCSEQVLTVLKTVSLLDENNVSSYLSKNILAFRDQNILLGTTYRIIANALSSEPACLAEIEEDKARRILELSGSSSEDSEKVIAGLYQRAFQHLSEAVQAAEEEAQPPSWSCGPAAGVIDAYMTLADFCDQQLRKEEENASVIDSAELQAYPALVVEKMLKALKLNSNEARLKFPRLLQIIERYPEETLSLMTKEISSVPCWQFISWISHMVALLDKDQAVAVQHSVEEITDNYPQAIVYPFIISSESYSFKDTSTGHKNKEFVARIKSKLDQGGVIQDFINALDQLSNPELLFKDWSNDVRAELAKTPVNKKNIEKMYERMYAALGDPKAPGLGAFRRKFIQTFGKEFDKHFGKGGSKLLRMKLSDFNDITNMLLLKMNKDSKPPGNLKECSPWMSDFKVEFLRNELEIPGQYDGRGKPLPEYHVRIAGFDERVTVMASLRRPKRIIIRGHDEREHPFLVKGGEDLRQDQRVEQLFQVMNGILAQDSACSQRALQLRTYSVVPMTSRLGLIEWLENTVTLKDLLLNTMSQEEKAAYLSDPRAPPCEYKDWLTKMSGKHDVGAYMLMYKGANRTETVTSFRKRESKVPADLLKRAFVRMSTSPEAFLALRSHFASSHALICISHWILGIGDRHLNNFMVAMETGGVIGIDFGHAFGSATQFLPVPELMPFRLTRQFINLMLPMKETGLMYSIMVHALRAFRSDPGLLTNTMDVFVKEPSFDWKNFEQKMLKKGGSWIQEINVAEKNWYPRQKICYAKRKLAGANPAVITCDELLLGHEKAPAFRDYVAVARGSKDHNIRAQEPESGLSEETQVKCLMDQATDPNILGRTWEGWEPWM

| SMILES | IC50 [nM] |
| --- | --- |
| CC(=O)Nc1nc(C)c(-c2ccc(Cl)c(S(=O)(=O)NCCO)c2)s1 | 64 |
| COc1ccc2c(c1OC)N=C(NC(=O)c1cccnc1)N1CCN=C21 | 13 |
| O=C1NC(=S)S/C1=C/c1ccc2c(c1)N(Cc1ccc(F)c(Cl)c1)C(=O)CO2 | 1500 |

Target: Serine/threonine-protein kinase mTOR (Homo sapiens, UniProt P42345)
Assay: Inhibition of human mTOR by non-radiometric ADP-Glo assay

| SMILES | IC50 [nM] |
| --- | --- |
| O=c1cc(N2CCOCC2)oc2c(-c3ccccc3)cccc12 [LY-294002] | 3900 |
| FC(F)c1nc2ccccc2n1-c1nc(N2CCOCC2)nc(N2CCOCC2)n1 [ZSTK-474] | 370 |

Target: Phosphatidylinositol 4-phosphate 3-kinase C2 domain-containing subunit alpha (Homo sapiens, UniProt O00443)
Assay: Inhibition of human PI3KC2alpha by non-radiometric ADP-Glo assay

| SMILES | IC50 [nM] |
| --- | --- |
| CC(=O)Nc1nc(C)c(-c2ccc(Cl)c(S(=O)(=O)NCCO)c2)s1 | 16000 |
| COc1ccc2c(c1OC)N=C(NC(=O)c1cccnc1)N1CCN=C21 | 47 |
| O=C1NC(=S)S/C1=C/c1ccc2c(c1)N(Cc1ccc(F)c(Cl)c1)C(=O)CO2 | 140 |
| O=c1cc(N2CCOCC2)oc2c(-c3ccccc3)cccc12 [LY-294002] | 27000 |
| Oc1cccc(-c2nc(N3CCOCC3)c3oc4ncccc4c3n2)c1 [PI-103] | 1000 |
| CS(=O)(=O)N1CCN(Cc2cc3nc(-c4cccc5[nH]ncc45)nc(N4CCOCC4)c3s2)CC1 [PICTILISIB] | > 100000 |
| FC(F)c1nc2ccccc2n1-c1nc(N2CCOCC2)nc(N2CCOCC2)n1 [ZSTK-474] | > 100000 |

Target: Phosphatidylinositol 4-phosphate 3-kinase C2 domain-containing subunit beta (Homo sapiens, UniProt O00750)
Assay: Inhibition of human PI3KC2beta by non-radiometric ADP-Glo assay

| SMILES | IC50 [nM] |
| --- | --- |
| CC(=O)Nc1nc(C)c(-c2ccc(Cl)c(S(=O)(=O)NCCO)c2)s1 | 140 |
| COc1ccc2c(c1OC)N=C(NC(=O)c1cccnc1)N1CCN=C21 | 64 |
| O=C1NC(=S)S/C1=C/c1ccc2c(c1)N(Cc1ccc(F)c(Cl)c1)C(=O)CO2 | 370 |
| CC(=O)Nc1ccc2nc(-c3cccc(NS(=O)(=O)c4cccc5ccccc45)c3)nc(N3CCOCC3)c2c1 | 530 |
| CC(=O)Nc1ccc2nc(-c3cccc(NS(=O)(=O)c4ccccc4)c3)nc(N3CCOCC3)c2c1 | 630 |
| CC[C@H](Nc1ncnc2[nH]cnc12)c1nc2cccc(F)c2c(=O)n1-c1ccccc1 [IDELALISIB] | > 1000 |
| O=c1cc(N2CCOCC2)oc2c(-c3ccccc3)cccc12 [LY-294002] | 10400 |
| FC(F)c1nc2ccccc2n1-c1nc(N2CCOCC2)nc(N2CCOCC2)n1 [ZSTK-474] | 180 |

Test system: not listed separately
Assay: Inhibition of human class 1 PI3K by non-radiometric ADP-Glo assay

| SMILES | IC50 [nM] |
| --- | --- |
| CC(=O)Nc1ccc2nc(-c3cccc(NS(=O)(=O)c4cccc5ccccc45)c3)nc(N3CCOCC3)c2c1 | > 10000 |
| CC(=O)Nc1ccc2nc(-c3cccc(NS(=O)(=O)c4ccccc4)c3)nc(N3CCOCC3)c2c1 | > 10000 |

Test system: not listed separately
Assay: Inhibition of human class 4 PI3K by non-radiometric ADP-Glo assay

| SMILES | IC50 [nM] |
| --- | --- |
| CC(=O)Nc1ccc2nc(-c3cccc(NS(=O)(=O)c4cccc5ccccc45)c3)nc(N3CCOCC3)c2c1 | > 100000 |
| CC(=O)Nc1ccc2nc(-c3cccc(NS(=O)(=O)c4ccccc4)c3)nc(N3CCOCC3)c2c1 | > 100000 |
